Test results from US6589325B1, “Phthalocyanine compounds, water-base ink compositions and colored products” (Nippon Kayaku Kabushiki Kaisha, priority 1999, dated 2003).

Key:
[1] = light fastness of recorded image, carbon arc fade meter; format: physicochemical; conditions: for light fastness (summary in words): depending on the kind of recording material; for Light fastness Judgment / Light fastness (ΔE): carbon arc 20 hours; for Light fastness Judgment: blue scale JIS L-0841; for Light fastness (ΔE): color difference before/after
Protocol: (§1) The solution of the composition as described below was prepared and filtered through a 0.45 μm membrane filter to prepare the water-based ink compositions for ink-jetting. Ion-exchanged water was used. The water-based ink compositions were prepared with water and ammonium hydroxide to have a pH of 8-10 and a total amount of 100 parts.
(§2) By using an ink-jet printer (Trade name: PICTY80L, made by NEC KK), ink-jet recordings were done on three kinds of recording paper: a plain paper (Printer Paper A4, TLB5A4S, made by Canon KK), a special paper A (Color BJ Paper LC101, made by Canon KK), a special paper B (Color Image Jet Coat Paper STX73A4, made by Sharp KK). The test results on hue, light fastness, water fastness and color rendering property in recorded images by the water-based ink compositions (containing the compounds of Example 1 to 2) of the present invention are shown in Table 2.
(§3) The ink compositions for two comparative examples were prepared so as to coincide in optical density with the black ink of the present invention as in the above (A), but the respective ink compositions contained C.I. Direct Black 19 (represented by following Formula), an azo colorant generally applied for an ink-jet black colorant (Comparative example 1) and the compound (represented by following Formula) described in JP Laid-Open No. 140270/1990 (Comparative example 2) respectively in place of the colorant. The test results on hue, light fastness, water fastness and color rendering property in recorded images pictured by the ink compositions for the comparative examples also are shown in Table 2. [drawing 4]
A carbon arc fade meter (by Suga Testing Machine KK) was used to irradiate carbon arc on the recorded image for 20 hours. Grade was determined based on blue scale grade as prescribed in JIS L-0841. Color difference (ΔE) between before and after the irradiation also was determined by the above colorimetry system.

[2] = water fastness of recorded image, stirred in water; format: physicochemical; conditions: for water fastness (summary in words): plain paper and special paper; for Water fastness Judgment / Water fastness (ΔE): stirred in water 2 min; for Water fastness Judgment: JIS fading gray scale; for Water fastness (ΔE): color difference before/after
Protocol: as §1, §2, §3
The recorded material was set in a beaker filled with water, stirred for 2 min and air-dried. The change in the recorded image was determined based on the JIS fading gray scale. Color difference (ΔE) between before and after the treatment also was determined by the above colorimetry system.

light fastness (summary in words) [1] | Light fastness Judgment ([1]; plain paper) | Light fastness (ΔE) ([1]; plain paper) | Light fastness Judgment ([1]; special paper A) | Light fastness (ΔE) ([1]; special paper A) | Light fastness Judgment ([1]; special paper B) | Light fastness (ΔE) ([1]; special paper B) | water fastness (summary in words) [2] | Water fastness Judgment ([2]; plain paper) | Water fastness (ΔE) ([2]; plain paper) | Water fastness Judgment ([2]; special paper A) | Water fastness (ΔE) ([2]; special paper A) | Water fastness Judgment ([2]; special paper B) | Water fastness (ΔE) ([2]; special paper B) | Compound
unstable quality | Grade 4 | (2.0) | Grade 3-4 | (4.1) | Grade 4 | (1.5) | inferior | Grade 2 | (11.5) | Grade 4 | (2.9) | Grade 4 | (2.8) | Nc1ccc(N=Nc2ccc(N=Nc3c(S(=O)(=O)[O-])cc4cc(S(=O)(=O)[O-])c(N=Nc5ccc(N=Nc6ccc(N)cc6N)cc5)c(O)c4c3N)cc2)c(N)c1.[Na+].[Na+] [Comparative Example 1, C.I. Direct Black 19]
unstable quality | Grade 4 | (1.3) | Grade 3 | (8.0) | Grade 4 | (2.8) | inferior | Grade 3 | (6.2) | Grade 5 | (1.0) | Grade 2 | (10.3) | Nc1ccc2cc(S(=O)(=O)O)c(N=Nc3ccc(N=Nc4cc(C(=O)O)cc(C(=O)O)c4)c4ccccc34)c(O)c2c1 [Comparative Example 2]
